Measured values published in patent US7371773B2, “Breast cancer resistance protein (BCRP) inhibitor” (Kabushiki Kaisha Yakult Honsha, priority 2003, dated 2008).
≈ marks a conversion by molar mass, not a printed value. Counter-ions that a name gives are not always drawn.

What was measured:
P388/BCRP cell line = test: Overcoming anticancer drug resistance in vivo (survival of tumor-implanted mice); parameters: species or system CDF1 mice; details: compound 100 mg/kg/day + CPT-11 20 mg/kg/day i.p. once a day, 10 administrations
A549/SN-38-4 cell line = test: Overcoming anticancer drug resistance of A549/SN-38-4 cell line; type: cell-based, human; details: for EC50: Homo sapiens, A549, SN-38 resistance, concentration for 50% reduction of relative resistance value, 48 hours, read-out: Resistance overcoming effect EC50
Protocol: The effect of a diphenylacrylonitrile derivative on BCRP-mediated anticancer drug resistance was studied by use of the human lung cancer A549/SN-38-4 cell line, which had acquired anticancer drug resistance through BCRP expression. The human lung cancer A549 cell line or the A549/SN-38-4 cell line was suspended in 10% FBS/Ham's F-12, and the resultant suspension was inoculated into a 96-well microplate, followed by culturing at 5% CO2 and 37° C. overnight (2×10^3 cells/50 μL/well). Thereafter, a 10% FBS/Ham's F-12 solution (25 μL) containing a diphenylacrylonitrile derivative and SN-38 or mitoxantrone was added to each of the wells, followed by culturing at 5% CO2 and 37° C. for 48 hours. After completion of culturing, the number of viable cells was counted by use of TetraColor ONE according to the attached instruction manual. […] The greater the relative resistance value, the higher the level of acquired resistance.

MES-SA/Dx5 cell line = test: Effect on multidrug resistance of MES-SA/Dx5 cell line; type: cell-based; details: Homo sapiens; paclitaxel resistance, MES-SA/Dx5 (P-glycoprotein overexpression), 48 hours; read-out: Resistance overcoming effect EC50
Protocol: Human uterine cancer MES-SA cell line or MES-SA/Dx5 cell line which had acquired multidrug resistance through overexpression of P-glycoprotein [Cancer Res. 45, 4091-4096 (1985)] was suspended in 10% FBS/DMEM, and the resultant suspension was inoculated into a 96-well microplate, followed by culturing at 5% CO2 and 37° C. overnight (3×10^3 cells/50 μL/well). Thereafter, a solution of a diphenylacrylonitrile derivative and paclitaxel in 10% FBS/DMEM (25 μL) was added to each of the wells, followed by culturing at 5% CO2 and 37° C. for 48 hours. After completion of culturing, the number of viable cells was counted by use of TetraColor ONE according to the attached instruction manual.

Compound	EC50 (A549/SN-38-4 cell line) [µg/mL]	EC50 (MES-SA/Dx5 cell line) [µg/mL]	further results
COc1ccc(/C(C#N)=C/c2ccc(OC(C)=O)cc2)cc1OC [Compound 3, 4-[(Z)-2-cyano-2-(3,4-dimethoxy-phenyl)-vinyl]-phenyl acetate]	0.02	> 1	Survival days Mean ± S.D. (P388/BCRP cell line; Table 6): 19.8 ± 0.8 days; T/C (P388/BCRP cell line; Table 6): 165%
COc1ccc(/C(C#N)=C/c2ccc(Br)cc2)cc1OC [Compound 12, (Z)-3-(4-bromo-phenyl)-2-(3,4-dimethoxy-phenyl)-acrylonitrile]	0.28 (≈ 0.813 µM)	> 1	–
COc1ccc(/C(C#N)=C/c2ccc(O)cc2)cc1OC [Compound 1, (Z)-2-(3,4-dimethoxyphenyl)-3-(4-hydroxyphenyl)acrylonitrile]	0.051 (≈ 0.181 µM)	> 1	Survival days Mean ± S.D. (P388/BCRP cell line; Table 6): 19.4 ± 1.1 days; T/C (P388/BCRP cell line; Table 6): 162%
COc1ccc(/C(C#N)=C/c2ccc(OC(=O)N3CCC(N4CCCCC4)CC3)cc2)cc1OC [Compound 2, 4-[(Z)-2-cyano-2-(3,4-dimethoxy-phenyl)-vinyl]-phenyl [1,4′]bipiperidinyl-1′-carboxylate]	0.41 (≈ 0.862 µM)	> 1	–
COc1ccc(/C(C#N)=C/c2ccccc2O)cc1OC [Compound 6, (Z)-2-(3,4-dimethoxy-phenyl)-3-(2-hydroxy-phenyl)-acrylonitrile]	0.098 (≈ 0.348 µM)	> 1	–
CCCCOc1ccc(/C(C#N)=C/c2ccc(O)cc2)cc1 [Compound 14, (Z)-2-(4-butoxy-phenyl)-3-(4-hydroxy-phenyl)-acrylonitrile]	0.047 (≈ 0.16 µM)	> 1	–
COc1ccc(/C(C#N)=C/c2cccc(F)c2)cc1OC [Compound 13, (Z)-2-(3,4-dimethoxy-phenyl)-3-(3-fluoro-phenyl)-acrylonitrile]	0.013 (≈ 0.0459 µM)	> 1	Survival days Mean ± S.D. (P388/BCRP cell line; Table 6): 20.6 ± 0.9 days; T/C (P388/BCRP cell line; Table 6): 172%
COc1ccc(/C(C#N)=C/c2cc(C)c(O)c(C)c2)cc1OC [Compound 10, (Z)-2-(3,4-dimethoxy-phenyl)-3-(4-hydroxy-3,5-dimethyl-phenyl)-acrylonitrile]	0.023 (≈ 0.0743 µM)	> 1	–
COc1ccc(/C(C#N)=C/c2ccc(O)c(O)c2)cc1OC [Compound 8, (Z)-3-(3,4-dihydroxy-phenyl)-2-(3,4-dimethoxy-phenyl)-acrylonitrile]	0.035 (≈ 0.118 µM)	> 1	Survival days Mean ± S.D. (P388/BCRP cell line; Table 6): 19.2 ± 0.8 days; T/C (P388/BCRP cell line; Table 6): 160%
COc1ccc(/C(C#N)=C/c2cccc(O)c2)cc1OC [Compound 5, (Z)-2-(3,4-dimethoxy-phenyl)-3-(3-hydroxy-phenyl)-acrylonitrile]	0.021 (≈ 0.0747 µM)	> 1	Survival days Mean ± S.D. (P388/BCRP cell line; Table 6): 19.2 ± 1.1 days; T/C (P388/BCRP cell line; Table 6): 160%
COc1ccc(/C(C#N)=C/c2cccc(N)c2)cc1OC [Compound 68, (Z)-3-(3-amino-phenyl)-2-(3,4-dimethoxy-phenyl)-acrylonitrile hydrochloride]	–	–	Survival days Mean ± S.D. (P388/BCRP cell line; Table 7, hydrochloride): 18.8 ± 2.9 days; Resistance overcoming effect EC50 (A549/SN-38-4 cell line): 0.048 µg/mL
COc1ccc(/C(C#N)=C/c2cccc(O)c2OC)cc1OC [Compound 9, (Z)-2-(3,4-dimethoxy-phenyl)-3-(3-hydroxy-2-methoxy-phenyl)-acrylonitrile]	0.028 (≈ 0.0899 µM)	> 1	–
COCCOCOc1ccc(/C=C(\C#N)c2ccc(OC)c(OC)c2)cc1 [Compound 4, (Z)-2-(3,4-dimethoxy-phenyl)-3-[4-(2-methoxy-ethoxymethoxy)-phenyl]-acrylonitrile]	0.079 (≈ 0.214 µM)	> 1	–
(Z)-2-(3,4-dimethoxyphenyl)-3-(4-β-D-glucopyranosyl-phenyl)-acrylonitrile [Compound 44]	–	–	Resistance overcoming effect EC50 (A549/SN-38-4 cell line): 0.024 µg/mL
COc1ccc(/C(C#N)=C/c2ccc(C#N)cc2)cc1OC [Compound 21, 4-[(Z)-2-cyano-2-(3,4-dimethoxy-phenyl)-vinyl]-benzonitrile]	0.022 (≈ 0.0758 µM)	–	–
COc1cc(/C(C#N)=C/c2ccc(O)cc2)cc(OC)c1OC [Compound 15, (Z)-3-(4-hydroxy-phenyl)-2-(3,4,5-trimethoxy-phenyl)-acrylonitrile]	0.023 (≈ 0.0739 µM)	> 1	–
COc1ccc(/C(C#N)=C/c2ccccc2[N+](=O)[O-])cc1OC [Compound 37, (Z)-2-(3,4-dimethoxy-phenyl)-3-(2-nitro-phenyl)-acrylonitrile]	0.085 (≈ 0.274 µM)	–	–

Compound	EC50 (A549/SN-38-4 cell line) [µg/mL]	EC50 (MES-SA/Dx5 cell line) [µg/mL]	further results
CCOC(=O)CCCCCCOc1ccc(/C=C(\C#N)c2ccc(OC)c(OC)c2)cc1 [Compound 66, ethyl 7-[4-[(Z)-2-cyano-2-(3,4-dimethoxy-phenyl)-vinyl]-phenoxy]-heptanoate]	0.71 (≈ 1.62 µM)	–	–
COC(=O)c1ccc(/C=C(\C#N)c2ccc(OC)c(OC)c2)cc1 [Compound 36, methyl 4-[(Z)-2-cyano-2-(3,4-dimethoxy-phenyl)-vinyl]-benzoate]	0.2 (≈ 0.619 µM)	–	–
COc1ccc(/C=C(\C#N)c2ccc(OC(C)=O)cc2)cc1OC [Compound 61, 4-[(Z)-1-cyano-2-(3,4-dimethoxy-phenyl)-vinyl]phenyl acetate]	0.024	–	–
COc1ccc(/C(C#N)=C/c2c(F)cccc2F)cc1OC [Compound 32, (Z)-3-(2,6-difluoro-phenyl)-2-(3,4-dimethoxy-phenyl)-acrylonitrile]	0.15 (≈ 0.498 µM)	–	–
(Z)-2-(3,4-dimethoxyphenyl)-3-[4-(6-phospho-β-D-glucopyranosyl)-phenyl]-acrylonitrile [Compound 73]	–	–	Resistance overcoming effect EC50 (A549/SN-38-4 cell line): 1.0 µg/mL
COc1ccc(/C(C#N)=C/c2cccc(N)c2)cc1OC [Compound 57, (Z)-3-(3-amino-phenyl)-2-(3,4-dimethoxy-phenyl)-acrylonitrile]	0.037 (≈ 0.132 µM)	–	Survival days Mean ± S.D. (P388/BCRP cell line; Table 7): 18.8 ± 0.8 days; T/C (P388/BCRP cell line; Table 7): 145%
N#C/C(=C\c1ccc(O)cc1)c1ccc(O)cc1 [Compound 16, (Z)-2,3-bis-(4-hydroxy-phenyl)-acrylonitrile]	0.098 (≈ 0.413 µM)	> 1	Survival days Mean ± S.D. (P388/BCRP cell line; Table 6): 19.2 ± 0.4 days; T/C (P388/BCRP cell line; Table 6): 160%
COc1ccc(/C(C#N)=C/c2cc([N+](=O)[O-])ccc2O)cc1OC [Compound 76, (Z)-2-(3,4-dimethoxy-phenyl)-3-(2-hydroxy-5-nitro-phenyl)-acrylonitrile]	0.82 (≈ 2.51 µM)	–	–
COc1ccc(/C(C#N)=C/c2cc(F)c(F)cc2F)cc1OC [Compound 30, (Z)-2-(3,4-dimethoxy-phenyl)-3-(2,4,5-trifluoro-phenyl)-acrylonitrile]	0.041 (≈ 0.128 µM)	–	–
CCOc1cc(/C=C(\C#N)c2ccc(OC)c(OC)c2)ccc1O [Compound 11, (Z)-2-(3,4-dimethoxy-phenyl)-3-(3-ethoxy-4-hydroxy-phenyl)-acrylonitrile]	0.047 (≈ 0.144 µM)	> 1	Survival days Mean ± S.D. (P388/BCRP cell line; Table 6): 19.4 ± 0.5 days; T/C (P388/BCRP cell line; Table 6): 162%
COc1ccc(/C(C#N)=C/c2cccc([N+](=O)[O-])c2)cc1OC [Compound 33, (Z)-2-(3,4-dimethoxy-phenyl)-3-(3-nitro-phenyl)-acrylonitrile]	0.019 (≈ 0.0612 µM)	–	–
CCOC(=O)COc1ccc(/C=C(\C#N)c2ccc(OC)c(OC)c2)cc1 [Compound 35, ethyl [4-[(Z)-2-cyano-2-(3,4-dimethoxy-phenyl)-vinyl]-phenoxy]-acetate]	0.37 (≈ 1.01 µM)	–	–
COc1ccc(/C(C#N)=C/c2ccc(Cl)c([N+](=O)[O-])c2)cc1OC [Compound 38, (Z)-3-(4-chloro-3-nitro-phenyl)-2-(3,4-dimethoxy-phenyl)-acrylonitrile]	0.037 (≈ 0.107 µM)	–	–
COc1ccc(/C(C#N)=C\c2ccc(O)cc2)cc1OC [Compound 50, (E)-2-(3,4-dimethoxy-phenyl)-3-(4-hydroxy-phenyl)-acrylonitrile]	0.094 (≈ 0.334 µM)	–	–
COc1cc(/C=C(\C#N)c2ccc(OC)c(OC)c2)ccc1O [Compound 7, (Z)-2-(3,4-dimethoxy-phenyl)-3-(4-hydroxy-3-methoxy-phenyl)-acrylonitrile]	0.025 (≈ 0.0803 µM)	> 1	Survival days Mean ± S.D. (P388/BCRP cell line; Table 6): 20.0 ± 0.7 days; T/C (P388/BCRP cell line; Table 6): 167%
CCOC(=O)CCC(=O)Oc1ccc(/C=C(\C#N)c2ccc(OC)c(OC)c2)cc1 [Compound 42, 4-[(Z)-2-cyano-2-(3,4-dimethoxy-phenyl)-vinyl]-phenyl ethyl succinate]	0.038	–	–
COc1ccc(/C=C(\C#N)c2ccc(OC(=O)CCCCCCCBr)cc2)cc1OC [Compound 67, 4-[(Z)-1-cyano-2-(3,4-dimethoxy-phenyl)-vinyl]-phenyl 8-bromo-octanoate]	0.065 (≈ 0.134 µM)	–	–
